Legend:
Format in all cases: biochemical
Details in all cases: wild-type un-phosphorylated protein; pre-incubated for 4 hours; ATP near or below Km
[1] = target: wild-type un-phosphorylated FGFR4 (Homo sapiens, UniProt P22455); assay: FGFR Enzymatic Assay (FRET peptide phosphorylation), FGFR4
Method: (§1) The inhibitor potency of the exemplified compounds was determined in an enzyme discontinuous assay that measures peptide phosphorylation using FRET measurements to detect product formation. Inhibitors were serially diluted in DMSO and a volume of 0.2 μL was transferred to the wells of a 384-well plate. […] Appropriate controls (enzyme blank and enzyme with no inhibitor) were included on the plate. […] The ATP Km values were pre-determined in a separate series of experiments. […] The plate was allowed to equilibrate for ˜10 minutes at ambient temperature before scanning on a PheraStar plate reader (BMG Labtech) instrument.
(§2) Either GraphPad prism or XLfit was used to analyze the data. The IC50 values were derived by fitting the data to a four parameter logistic equation producing a sigmoidal dose-response curve with a variable Hill coefficient. Prism equation: Y=Bottom+(Top−Bottom)/(1+10^((LogIC50−X)*Hill slope)); XLfit equation: Y=(A+((B−A)/(1+((X/C)^D)))) where X is the logarithm of inhibitor concentration and Y is the response.
(§3) The data in Table 1 was measured in wild-type un-phosphorylated FGFR1, FGFR2, FGFR3 and FGFR4 protein.

[2] = target: wild-type un-phosphorylated FGFR1 (Homo sapiens, UniProt P11362); assay: FGFR Enzymatic Assay (FRET peptide phosphorylation), FGFR1
[3] = target: wild-type un-phosphorylated FGFR3 (Homo sapiens, UniProt P22607); assay: FGFR Enzymatic Assay (FRET peptide phosphorylation), FGFR3
[4] = target: wild-type un-phosphorylated FGFR2 (Homo sapiens, UniProt P21802); assay: FGFR Enzymatic Assay (FRET peptide phosphorylation), FGFR2
Method: as §1, §2, §3

Sequence of wild-type un-phosphorylated FGFR2 (P21802 22-821): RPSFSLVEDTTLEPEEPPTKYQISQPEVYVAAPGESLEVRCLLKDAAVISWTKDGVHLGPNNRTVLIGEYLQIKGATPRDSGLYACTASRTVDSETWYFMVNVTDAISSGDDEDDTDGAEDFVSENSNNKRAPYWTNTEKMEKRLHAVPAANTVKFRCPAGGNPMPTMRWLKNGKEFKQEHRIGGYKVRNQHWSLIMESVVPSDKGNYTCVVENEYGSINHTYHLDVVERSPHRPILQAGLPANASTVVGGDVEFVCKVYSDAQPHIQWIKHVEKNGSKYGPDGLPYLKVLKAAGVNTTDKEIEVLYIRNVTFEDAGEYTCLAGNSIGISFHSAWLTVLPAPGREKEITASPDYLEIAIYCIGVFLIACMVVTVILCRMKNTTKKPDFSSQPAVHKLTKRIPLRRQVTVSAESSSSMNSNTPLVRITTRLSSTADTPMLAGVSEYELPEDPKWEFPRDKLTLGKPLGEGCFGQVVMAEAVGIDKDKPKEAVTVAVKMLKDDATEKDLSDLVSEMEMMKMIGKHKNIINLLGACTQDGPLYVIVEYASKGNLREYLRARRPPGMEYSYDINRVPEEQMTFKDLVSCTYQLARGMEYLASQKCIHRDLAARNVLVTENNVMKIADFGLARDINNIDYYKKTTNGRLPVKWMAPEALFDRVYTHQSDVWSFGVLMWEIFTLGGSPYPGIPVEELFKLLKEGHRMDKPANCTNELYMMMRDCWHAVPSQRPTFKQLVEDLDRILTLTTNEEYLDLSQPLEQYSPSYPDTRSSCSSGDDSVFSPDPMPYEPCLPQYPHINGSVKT
Sequence of wild-type un-phosphorylated FGFR1 (P11362 22-822): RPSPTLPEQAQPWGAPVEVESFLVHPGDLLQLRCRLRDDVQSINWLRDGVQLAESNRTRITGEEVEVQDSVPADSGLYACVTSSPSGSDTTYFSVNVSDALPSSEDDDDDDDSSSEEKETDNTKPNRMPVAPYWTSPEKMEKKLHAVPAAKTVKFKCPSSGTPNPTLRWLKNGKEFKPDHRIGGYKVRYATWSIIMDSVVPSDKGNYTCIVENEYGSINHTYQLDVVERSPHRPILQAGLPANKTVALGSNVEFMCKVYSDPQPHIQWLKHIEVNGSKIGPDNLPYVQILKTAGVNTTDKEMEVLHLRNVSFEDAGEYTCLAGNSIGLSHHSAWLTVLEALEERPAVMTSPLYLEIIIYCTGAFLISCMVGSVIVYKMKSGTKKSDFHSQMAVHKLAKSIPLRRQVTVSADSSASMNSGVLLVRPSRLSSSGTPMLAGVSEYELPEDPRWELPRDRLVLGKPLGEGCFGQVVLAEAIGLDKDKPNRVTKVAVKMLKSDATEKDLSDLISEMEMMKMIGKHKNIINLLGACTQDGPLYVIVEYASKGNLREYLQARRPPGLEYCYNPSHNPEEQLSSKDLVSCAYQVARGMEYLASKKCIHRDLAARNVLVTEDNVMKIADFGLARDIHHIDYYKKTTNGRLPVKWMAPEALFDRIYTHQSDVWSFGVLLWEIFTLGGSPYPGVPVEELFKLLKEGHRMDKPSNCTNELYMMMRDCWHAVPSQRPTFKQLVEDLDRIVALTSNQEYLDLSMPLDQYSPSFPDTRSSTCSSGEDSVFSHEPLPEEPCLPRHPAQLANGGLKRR
Sequence of wild-type un-phosphorylated FGFR4 (P22455 22-802): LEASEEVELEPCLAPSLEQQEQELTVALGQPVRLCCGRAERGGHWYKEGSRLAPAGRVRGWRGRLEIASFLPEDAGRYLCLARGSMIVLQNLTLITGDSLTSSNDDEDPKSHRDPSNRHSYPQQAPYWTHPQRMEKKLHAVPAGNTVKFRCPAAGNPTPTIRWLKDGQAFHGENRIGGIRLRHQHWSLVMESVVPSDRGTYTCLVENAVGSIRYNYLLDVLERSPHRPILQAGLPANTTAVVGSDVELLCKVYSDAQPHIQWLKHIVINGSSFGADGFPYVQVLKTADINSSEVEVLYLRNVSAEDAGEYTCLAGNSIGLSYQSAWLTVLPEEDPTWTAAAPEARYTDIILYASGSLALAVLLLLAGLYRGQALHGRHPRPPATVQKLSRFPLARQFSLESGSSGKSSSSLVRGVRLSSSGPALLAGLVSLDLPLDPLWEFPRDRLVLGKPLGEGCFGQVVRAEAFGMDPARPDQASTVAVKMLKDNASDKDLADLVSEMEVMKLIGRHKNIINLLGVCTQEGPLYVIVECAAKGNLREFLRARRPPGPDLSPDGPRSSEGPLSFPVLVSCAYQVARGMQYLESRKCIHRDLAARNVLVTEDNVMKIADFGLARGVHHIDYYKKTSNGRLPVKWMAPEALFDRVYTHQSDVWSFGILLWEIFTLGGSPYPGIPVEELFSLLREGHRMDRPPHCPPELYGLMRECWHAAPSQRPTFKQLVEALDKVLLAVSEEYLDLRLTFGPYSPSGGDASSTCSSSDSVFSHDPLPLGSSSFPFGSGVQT
Sequence of wild-type un-phosphorylated FGFR3 (P22607 23-806): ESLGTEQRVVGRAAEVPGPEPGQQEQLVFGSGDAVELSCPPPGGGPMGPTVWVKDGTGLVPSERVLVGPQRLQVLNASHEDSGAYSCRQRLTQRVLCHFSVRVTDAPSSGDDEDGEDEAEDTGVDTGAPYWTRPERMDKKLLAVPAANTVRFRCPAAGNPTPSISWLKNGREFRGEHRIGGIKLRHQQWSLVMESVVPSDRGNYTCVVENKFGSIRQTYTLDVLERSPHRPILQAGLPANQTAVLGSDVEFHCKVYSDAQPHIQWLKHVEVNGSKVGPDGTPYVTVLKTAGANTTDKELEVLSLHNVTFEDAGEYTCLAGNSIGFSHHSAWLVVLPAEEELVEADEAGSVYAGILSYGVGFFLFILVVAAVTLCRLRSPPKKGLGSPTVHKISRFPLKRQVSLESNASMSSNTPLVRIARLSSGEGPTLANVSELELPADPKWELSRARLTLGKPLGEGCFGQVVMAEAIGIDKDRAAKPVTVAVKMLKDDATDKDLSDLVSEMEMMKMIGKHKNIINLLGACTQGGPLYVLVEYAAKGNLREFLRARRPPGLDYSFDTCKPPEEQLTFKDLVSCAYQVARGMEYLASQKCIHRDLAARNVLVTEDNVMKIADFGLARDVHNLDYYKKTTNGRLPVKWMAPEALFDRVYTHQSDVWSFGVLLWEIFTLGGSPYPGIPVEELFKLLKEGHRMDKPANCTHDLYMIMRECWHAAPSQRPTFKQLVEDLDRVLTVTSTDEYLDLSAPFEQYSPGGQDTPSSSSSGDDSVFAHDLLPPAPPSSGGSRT

CNC(=O)c1cccc(-c2cnc3cc(-c4cnn(C)c4)c(OC)cn23)c1 [Example 1, 3-(6-Methoxy-7-(1-methyl-1H-pyrazol-4-yl)imidazo[1,2-a]pyridine-3-yl)-N-methylbenzamide] was tested. Which IC50 [1] did it give?
The IC50 was at least 0.4 µM.

What about the IC50 [2] of the same compound?
The IC50 was at least 0.4 µM.

What about the IC50 [3] of the same compound?
The IC50 was 0.01 to 0.1 µM.

With CNC(=O)c1cccc(-c2cnc3cc(-c4cnn(C)c4)c(OC)nn23)c1 [Example 2, 3-(6-Methoxy-7-(1-methyl-1H-pyrazol-4-yl)imidazo[1,2-b]pyridazin-3-yl)-N-methylbenzamide] as the compound, how does the IC50 [1] read?
Its IC50 is at least 0.4 µM.

Which IC50 [4] does the source give for CNC(=O)c1cc(F)c(F)c(-c2cnc3cc(-c4cnn5c4CCC5)c(O[C@H]4CCOC4)nn23)c1 [Example 22, (S)-3-(7-(5,6-Dihydro-4H-pyrrolo[1,2-b]pyrazol-3-yl)-6-((tetrahydrofuran-3-yl)oxy)imidazo[1,2-b]pyridazin-3-yl)-4,5-difluoro-N-methylbenzamide] here?
The IC50 was under 0.01 µM.

What about the IC50 [1] of the same compound?
The IC50 was 0.1 to 0.4 µM.

And the IC50 [2]?
Its IC50 is 0.01 to 0.1 µM.

What about the IC50 [3] of the same compound?
Its IC50 is under 0.01 µM.

With CNC(=O)c1cc(-c2cnc3cc(-c4cnn(CCN5CCOCC5)c4)c(O[C@H]4CCOC4)nn23)c(F)c(C(F)F)c1 [Example 30, (S)-3-(Difluoromethyl)-4-fluoro-N-methyl-5-(7-(1-(2-morpholinoethyl)-1H-pyrazol-4-yl)-6-((tetrahydrofuran-3-yl)oxy)imidazo[1,2-b]pyridazin-3-yl)benzamide] as the compound, how does the IC50 [4] read?
The IC50 was under 0.01 µM.

And the IC50 [1]?
Its IC50 is 0.01 to 0.1 µM.

What about the IC50 [2] of the same compound?
Its IC50 is 0.01 to 0.1 µM.

And the IC50 [3]?
Its IC50 is under 0.01 µM.

Which results are given for CNC(=O)c1cccc(-c2cnc3cc(-c4cnn(C)c4)c(OC4COC4)nn23)c1 [Example 58, N-Methyl-3-(7-(1-methyl-1H-pyrazol-4-yl)-6-(oxetan-3-yloxy)imidazo[1,2-b]pyridazin-3-yl)benzamide]?
IC50 [4]: < 0.01 µM; IC50 [1]: 0.1 to 0.4 µM

For CNC(=O)c1cc(F)c(F)c(-c2cnc3cc(-c4cnn(C5CCN(C(=O)N(C)C)CC5)c4)c(O[C@H]4CCOC4)nn23)c1 [Example 73, (S)-4-(4-(3-(2,3-Difluoro-5-(methylcarbamoyl)phenyl)-6-((tetrahydrofuran-3-yl)oxy)imidazo[1,2-b]pyridazin-7-yl)-1H-pyrazol-1-yl)-N,N-dimethylpiperidine-1-carboxamide], which IC50 [4] is on record?
Its IC50 is under 0.01 µM.

What about the IC50 [2] of the same compound?
The IC50 was under 0.01 µM.

And the IC50 [3]?
The IC50 was under 0.01 µM.

Which IC50 [4] does the source give for CNC(=O)c1cc(F)c(F)c(-c2cnc3cc(-c4cnn(C5CCN(C(C)=O)CC5)c4)c(O[C@H]4CCOC4)nn23)c1 [Example 74, (S)-3-(7-(1-(1-Acetylpiperidin-4-yl)-1H-pyrazol-4-yl)-6-((tetrahydrofuran-3-yl)oxy)imidazo[1,2-b]pyridazin-3-yl)-4,5-difluoro-N-methylbenzamide] here?
Its IC50 is under 0.01 µM.

And the IC50 [2]?
Its IC50 is under 0.01 µM.

And the IC50 [3]?
The IC50 was under 0.01 µM.

For CNC(=O)c1cc(F)c(F)c(-c2cnc3cc(-c4cnn(CCN5CCCC5=O)c4)c(O[C@H]4CCOC4)nn23)c1 [Example 75, (S)-3,4-Difluoro-N-methyl-5-(7-(1-(2-(2-oxopyrrolidin-1-yl)ethyl)-1H-pyrazol-4-yl)-6-((tetrahydrofuran-3-yl)oxy)imidazo[1,2-b]pyridazin-3-yl)benzamide], which IC50 [4] is on record?
The IC50 was under 0.01 µM.

And the IC50 [2]?
Its IC50 is under 0.01 µM.

What about the IC50 [3] of the same compound?
The IC50 was under 0.01 µM.

What does the source list for CNC(=O)c1cc(F)c(F)c(-c2cnc3cc(-c4cnn(C5CCN(S(=O)(=O)N(C)C)CC5)c4)c(O[C@H]4CCOC4)nn23)c1 [Example 76, (S)-3-(7-(1-(1-(N,N-Dimethylsulfamoyl)piperidin-4-yl)-1H-pyrazol-4-yl)-6-((tetrahydrofuran-3-yl)oxy)imidazo[1,2-b]pyridazin-3-yl)-4,5-difluoro-N-methylbenzamide]?
IC50 [4]: < 0.01 µM; IC50 [2]: < 0.01 µM; IC50 [3]: < 0.01 µM

How did the IC50 [4] turn out when CC(C)n1cc(-c2cc3ncc(-c4ccc5c(c4)C(=O)NC5)n3nc2O[C@H]2CCOC2)cn1 [Example 77, (S)-6-(7-(1-Isopropyl-1H-pyrazol-4-yl)-6-((tetrahydrofuran-3-yl)oxy)imidazo[1,2-b]pyridazin-3-yl)isoindolin-1-one] was run?
Its IC50 is 0.01 to 0.1 µM.

What about the IC50 [2] of the same compound?
Its IC50 is at least 0.4 µM.

And the IC50 [3]?
The IC50 was 0.01 to 0.1 µM.
